{"source": "patent US20170056379A1", "about": "“METHOD OF USING DOPAMINE REUPTAKE INHIBITORS AND THEIR ANALOGS FOR TREATING DIABETES SYMPTOMS AND DELAYING OR […]-[…]” (CALIPER LIFE SCIENCES, INC., priority 2009, published 2017)", "assay_type_in_all_cases": "in vivo", "key": {"FVB strain of mice [1]": {"system": "FVB strain of mice", "experiment": "Home-cage health and behavior", "conditions": "high-fat-diet-drug-treated group, in contrast to the high-fat-diet-vehicle-treated group", "excerpt": "Home-cage health and behavior—This is not a […] measurement but the behavior pattern that we noticed during the study. All 4 groups of animals were housed in pairs or trios according to stratification of either treated with drug or vehicle. For three of the 4 groups, e.g. Normal Diet-drug-treated, Normal Diet-vehicle-treated, and high-fat-diet-drug-treated, the animals appear to be healthy, were docile to handlers and non-aggressive with each other. However the high-fat-diet-vehicle-treated group started to develop underbelly lesions, bite marks, and aggressive behavior towards littermates. This pattern of behavior became especially noticeable after overnight fasting (in order for fasting blood glucose level). In fact, after the above mentioned second examination (examination of fasting blood glucose level after 4 weeks of drug treatment), one of the mice in the high-fat-diet-vehicle-treated group had to be euthanized due to wounds and lesions. The remainders (of the four mice) were subsequently housed individually. These changes of behavior patterns and or behavior oddities are likely indicative of neurological changes under pre-diabetic or diabetic conditions."}, "FVB strain of mice [2]": {"system": "FVB strain of mice", "experiment": "Mediation of hyperglycemic conditions: blood glucose and body mass in high fat diet mice", "conditions": "10 mg/kg p.o. daily six days a week, after 4 weeks of treatment", "excerpt": "Mediation of hyperglycemic conditions—FVB strain of mice were used in this study. In our previous study (unpublished), we noted that the FVB strain provides a broad phenotypic window for most parameters of human diabetic conditions similar to C57B1/6. For instance, there was a noted weight gain and obesity induced with high and intermediate fat diets. A persistent high fat diet induces relatively robust hyperglycemic conditions and inefficient glucose disposal but with little noted effects on metabolic rate. There is little circadian impact and changes in activity patterns with the high fat diet.\nTwenty FVB mice (˜12 weeks of age) were randomly separated into two groups (n=10). One group (of ten mice) was fed a high fat diet (ResearchDiets, New Brunswick, N.J., and Cat. #D12492); with the following caloric components: 20 percent protein; 20 percent carbohydrate; and 60 percent fat; 5.24 kcal/gram. Another group was fed with regular rodent chow (Labdiet, Richmond, Ind., product code 5010); 28.7 percent protein, 12.7 percent fat, and 58.6 percent carbohydrate; 3.43 kcal/gram. After seven-weeks, blood glucose levels (and body weight) of the two different groups were examined. […] The group fed on the high fat diet clearly developed a hyperglycemic condition. The difference in body mass was also clearly significant.\nEach of the two groups were then further separated into two subgroups (n=5). For the high fat diet group, the separation of the animals from the hyperglycemic/high fat diet group into two sub-groups was normalized based on the blood glucose levels. One group, designated as high fat-D, were treated with a dopamine reuptake inhibitor (3-(phenylpropyl)-sydnonimine-N-phenylcarbamoyl), the other group, designated as high fat-N were treated with vehicle (30% captosol, 1% Tween (Tween® 20, a polyoxyethylene sorbitan esters available from Sigma) and 1% 1N HCl in H2O; hereafter referred to as vehicle). For the normal chow group, the separation was random but similarly designated and separated into drug treated (Normal-D) and vehicle controls (Normal-N). […]"}, "FVB strain of mice [3]": {"system": "FVB strain of mice", "experiment": "Mediation of diabetic-induced hypoalgesia (Hot-plate assay)", "conditions": "for (Mean − Mean0)/Std0 (Wilcoxon rank sums, hot plate latency) / Score Mean (Wilcoxon rank sums, hot plate latency) / Score Sum (Wilcoxon rank sums, hot plate latency): hot plate 48° C.", "description": "Mediation of diabetic-induced hypoalgesia (Hot-plate assay)—Mice were brought to the testing room and acclimatized for an hour before test. Pain reflexes in response to a thermal stimulus are measured using a Hot Plate Analgesia Meter from Harvard Apparatus. The plate surface was maintained at 48° C. that was measured by a built-in digital thermometer. Mice were placed on the hot plate which is surrounded by a clear acrylic cage with the Start/Stop trigger on the timer. […] For each subject, the test was performed three times with about 30 minute rest between tests. Animals were tested one at a time and were not habituated to the apparatus prior to testing."}, "FVB strain of mice [4]": {"system": "FVB strain of mice", "experiment": "Mediation of diabetic hypoalgesia (Tail-flick assay)", "conditions": "for (Mean − Mean0)/Std0 (Wilcoxon rank sums, tail-flick latency) / Score Mean (Wilcoxon rank sums, tail-flick latency) / Score Sum (Wilcoxon rank sums, tail-flick latency): 5.0 mg/kg p.o. an hour before test", "description": "Mediation of diabetic hypoalgesia (Tail-flick assay)—Mice were brought to the testing room, acclimatized and administered 3-(phenylpropyl)-sydnonimine-N-phenylcarbamoyl (5.0 mg/kg; p.o.) an hour before test. Pain reflexes in response to a thermal stimulus are measured using a tail-flick analgesic meter with a built in stop-timer from Columbus Instruments. Latencies to respond for the thermal stimulation is recorder. For each subject, the test was performed three times with about 30 minute rests between tests. Animals are tested one at a time and are not habituated to the apparatus prior to testing."}}, "note": "Entries after “also recorded” stand apart in the source; their conditions may differ."}
{"smiles": "CC(Cc1ccccc1)[n+]1cc([N-]C(=O)Nc2ccccc2)on1", "note": "(centres unmarked) [3-(phenylpropyl)-sydnonimine-N-phenylcarbamoyl]", "values": [{"measurement": "home-cage health and behavior", "setting": "FVB strain of mice [1]", "result": "remained healthy, docile and playful with littermates"}, {"measurement": "body mass of high fat diet groups compared with Normal Diet groups", "setting": "FVB strain of mice [2]", "result": "still noticeably higher than the groups on the Normal Diet regardless of the drug exposure"}, {"measurement": "blood glucose levels of drug treated groups compared with respective sham treated groups", "setting": "FVB strain of mice [2]; high fat and Normal Diet groups", "result": "lower levels of blood glucose than their respective sham treated groups"}, {"measurement": "blood glucose levels of high fat diet drug treated mice compared with Normal Diet group", "setting": "FVB strain of mice [2]; high fat diet, 10 mg/kg", "result": "indistinguishable from the group of mice fed a Normal Diet; also recorded: no discernable differences"}, {"measurement": "thermal responses of high-fat-diet-drug-treated subjects compared with Normal Diet-vehicle-treated (hot plate)", "setting": "FVB strain of mice [3]; FIG. 3", "result": "virtually no difference was observed"}, {"measurement": "effect on hypoalgesic conditions induced by diabetic conditions (hot plate test)", "setting": "FVB strain of mice [3]; FIG. 3, high fat diet mice", "result": "attenuated the hypoalgesic"}, {"measurement": "(Mean − Mean0)/Std0 (Wilcoxon rank sums, hot plate latency)", "setting": "FVB strain of mice [3]; High Fat-D group", "result": "−1.528"}, {"measurement": "Score Mean (Wilcoxon rank sums, hot plate latency)", "setting": "FVB strain of mice [3]; High Fat-D group", "result": 6.600}, {"measurement": "Score Sum (Wilcoxon rank sums, hot plate latency)", "setting": "FVB strain of mice [3]; High Fat-D group", "result": 33.000}, {"measurement": "(Mean − Mean0)/Std0 (Wilcoxon rank sums, hot plate latency)", "setting": "FVB strain of mice [3]; Normal-D group", "result": 1.898}, {"measurement": "Score Mean (Wilcoxon rank sums, hot plate latency)", "setting": "FVB strain of mice [3]; Normal-D group", "result": 14.200}, {"measurement": "Score Sum (Wilcoxon rank sums, hot plate latency)", "setting": "FVB strain of mice [3]; Normal-D group", "result": 71.000}, {"measurement": "thermal responses of high-fat-diet-drug-treated subjects compared with Normal Diet-vehicle-treated (tail-flick)", "setting": "FVB strain of mice [4]; FIG. 4", "result": "virtually no difference was observed"}, {"measurement": "effect on hypoalgesic conditions induced by diabetic conditions (tail-flick test)", "setting": "FVB strain of mice [4]; FIG. 4, high fat diet mice", "result": "attenuated the hypoalgesic"}, {"measurement": "(Mean − Mean0)/Std0 (Wilcoxon rank sums, tail-flick latency)", "setting": "FVB strain of mice [4]; High Fat-D group", "result": "−2.268"}, {"measurement": "Score Mean (Wilcoxon rank sums, tail-flick latency)", "setting": "FVB strain of mice [4]; High Fat-D group", "result": 5.000}, {"measurement": "Score Sum (Wilcoxon rank sums, tail-flick latency)", "setting": "FVB strain of mice [4]; High Fat-D group", "result": 25.000}, {"measurement": "(Mean − Mean0)/Std0 (Wilcoxon rank sums, tail-flick latency)", "setting": "FVB strain of mice [4]; Normal-D group", "result": "−0.139"}, {"measurement": "Score Mean (Wilcoxon rank sums, tail-flick latency)", "setting": "FVB strain of mice [4]; Normal-D group", "result": 9.600}, {"measurement": "Score Sum (Wilcoxon rank sums, tail-flick latency)", "setting": "FVB strain of mice [4]; Normal-D group", "result": 48.000}]}
